In general, TGI refers to the concentration at which net growth stops. Low values mean more potent growth arrest, high ones less potent growth arrest. Broadly, the GI50 is the concentration that inhibits growth by half.

Results on 14 compounds are retold here after PubChem BioAssay (NCI).

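Exposure lasted 48 hours, with cells grown in 96-well plates and compounds tested at five concentrations. At the GI50, growth is halved. TGI marks complete inhibition of growth.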

Some test systems named below: HL-60(TB) leukemia; SF-295 CNS; HOP-62 NSCLC; SN12C renal; MOLT-4 leukemia; U251 CNS; SK-OV-3 ovarian; IGROV1 ovarian.
What all share (assay): DTP human tumour cell line panel, 48 h

Consider `CCCC(Sc1ccccc1)P(=O)(c1ccccc1)c1ccccc1` (configuration not stated), for which the TGI was 52.6 µM with HL-60(TB) leukemia; over 100 µM with SF-295 CNS; over 100 µM in the test on HOP-62 NSCLC; over 100 µM in the test on SN12C renal; 52.2 µM with MOLT-4 leukemia; over 100 µM in the test with U251 CNS. The compound further came in with a TGI in the test on SK-OV-3 ovarian of 50.7 µM.

As to `C1CCOC2(CCC3(CC2)OCCCCO3)OC1`, the TGI in the test with HL-60(TB) leukemia, in the test with HOP-62 NSCLC, with SN12C renal, with MOLT-4 leukemia, in the test with U251 CNS and in the test with IGROV1 ovarian was over 100 µM throughout. The same compound had a TGI with SK-OV-3 ovarian of over 100 µM.

Consider `CC(=O)NC1CC2Oc3ccc(C)cc3C(C)(O2)C1O` (configuration not stated), for which the TGI in the test with HL-60(TB) leukemia, in the test with SF-295 CNS, in the test on HOP-62 NSCLC, in the test with SN12C renal, in the test with MOLT-4 leukemia and in the test with U251 CNS was over 100 µM in each case. The TGI with IGROV1 ovarian and with SK-OV-3 ovarian was over 100 µM in each case.

With `C=C1CCC2[C@@H](CCC3[C@]2(C)CCC[C@]3(C)C(=O)OC)C1CCO` (some centres not stated), the TGI with HL-60(TB) leukemia came out at 9.36 µM; in the test on SF-295 CNS, 30.9 µM; in the test on HOP-62 NSCLC, 41.7 µM; in the test on SN12C renal, 27.5 µM; with MOLT-4 leukemia, 17.9 µM; in the test on U251 CNS it was 26.4 µM. Moreover, the TGI with IGROV1 ovarian amounted to 29.6 µM; with SK-OV-3 ovarian it was 45.3 µM.

Take `O=c1[nH]c(-c2ccc(-c3nc4cc([N+](=O)[O-])ccc4c(=O)[nH]3)cc2)nc2cc([N+](=O)[O-])ccc12`: the TGI in the test with HL-60(TB) leukemia, in the test on SF-295 CNS, in the test with HOP-62 NSCLC, with SN12C renal, in the test on MOLT-4 leukemia and in the test on U251 CNS was over 100 µM in each case. Moreover, the TGI in the test on IGROV1 ovarian and in the test with SK-OV-3 ovarian was over 100 µM in each case.

In the case of `C/C=C/C=C/CCCCCCCCCCCCCC1(OC)C=CC(CC(=O)OC)OO1` (configuration not stated), the TGI with HL-60(TB) leukemia amounted to 18.4 µM; with SF-295 CNS, 6.34 µM; in the test with HOP-62 NSCLC, 41.6 µM; in the test on SN12C renal it was 26.3 µM; in the test with MOLT-4 leukemia, 33.8 µM; in the test on U251 CNS, 31.2 µM. Moreover, the TGI in the test with IGROV1 ovarian was 1.03 µM; in the test on SK-OV-3 ovarian, 33.9 µM. Besides, the GI50 in the test on SF-295 CNS is 2.58 µM; with HOP-62 NSCLC it was 20 µM; with MOLT-4 leukemia it was 7.97 µM; with IGROV1 ovarian, 0.509 µM.

With `C=CCC(OCCOCC)c1cc(OCCOCC)ccc1OC` (configuration not stated), the TGI with HL-60(TB) leukemia, in the test with SF-295 CNS, in the test with HOP-62 NSCLC, in the test with SN12C renal, with MOLT-4 leukemia and in the test on U251 CNS was over 100 µM throughout. Further, the concentration for total growth inhibition (TGI) in the test on IGROV1 ovarian and with SK-OV-3 ovarian was over 100 µM throughout.

On to `O=C(Nc1nc(=S)c2c(ncn2CCO)[nH]1)c1ccccc1`, for which the TGI in the test with HL-60(TB) leukemia, in the test on SF-295 CNS, in the test with HOP-62 NSCLC, with SN12C renal, in the test with U251 CNS and in the test on IGROV1 ovarian was over 100 µM in each case. This compound returned a TGI in the test with SK-OV-3 ovarian of over 100 µM.

Regarding `COc1cc(C)c(O)c(C(=O)O)c1`, the TGI with SF-295 CNS, with HOP-62 NSCLC, with SN12C renal, with MOLT-4 leukemia, in the test on U251 CNS and in the test on IGROV1 ovarian was over 100 µM in each case. The compound further had a TGI with SK-OV-3 ovarian of over 100 µM.

Regarding `C=C1CCc2occ(C)c2C2C1C1=C(CC(C)C1=O)C1OC12C` (configuration not stated), the TGI with SF-295 CNS, with HOP-62 NSCLC, with SN12C renal, with MOLT-4 leukemia, in the test on U251 CNS and with IGROV1 ovarian was over 100 µM in each case. This compound also registered a TGI in the test with SK-OV-3 ovarian of over 100 µM.

On to `CC1CCC(C(C)C)C(O[C@@H]2OC(=O)C[C@@H]2Sc2ccccc2)C1` (some centres not stated), for which the TGI in the test with HL-60(TB) leukemia was 43.6 µM; in the test with SF-295 CNS it was 54.6 µM; in the test on HOP-62 NSCLC, 96 µM; in the test on SN12C renal, 32 µM; in the test with MOLT-4 leukemia, 32 µM; in the test with IGROV1 ovarian, over 100 µM. The compound also returned a TGI in the test on SK-OV-3 ovarian of 91.7 µM.

For `O=C1c2ccccc2CC1C1(O)C(=O)Nc2ccccc21` (configuration not stated), the TGI in the test on HL-60(TB) leukemia, with SF-295 CNS, with HOP-62 NSCLC, in the test on SN12C renal, with MOLT-4 leukemia and in the test with IGROV1 ovarian was over 100 µM in each case. For the same compound, the TGI in the test on SK-OV-3 ovarian is over 100 µM.

With `COC(=O)c1cc(-c2cccn2C)c2c(c1C(=O)OC)c1ccccc1n2C`, the TGI in the test on HL-60(TB) leukemia was over 100 µM; in the test with SF-295 CNS it was over 100 µM; in the test with SN12C renal, over 100 µM; in the test with MOLT-4 leukemia it was 29.3 µM; in the test with U251 CNS it was over 100 µM; in the test with IGROV1 ovarian it was over 100 µM. This compound registered a TGI in the test on SK-OV-3 ovarian of over 100 µM.

As to `N#Cc1cc([N+](=O)[O-])ccc1NC(=O)/C(=N/N)C(C(=O)c1ccc(Cl)c(Cl)c1)C1OC(=O)c2ccccc21` (configuration not stated), the TGI in the test with SF-295 CNS, with HOP-62 NSCLC, in the test with SN12C renal, with MOLT-4 leukemia, in the test on U251 CNS and in the test on IGROV1 ovarian was over 100 µM each time. Also, in the test on SK-OV-3 ovarian, the TGI was over 100 µM.
